Laboratory results reported in PMC5321741, “Arylmethylamino steroids as antiparasitic agents” (Nature Communications, 2017).
“And” between values parts separate entries of the source, which are not always exact repeats. Equal values may be shown once.

What was measured:
[1] = system: P. berghei GFP ANKA malaria strain; assay: P. berghei mouse model (Peter's test); format: in vivo, Plasmodium berghei in NMRI mice
Method: The animal experiments described here were performed at the Swiss Tropical and Public Health Institute (Swiss TPH, Basel, Switzerland), they were approved by the Swiss Cantonal Authorities (‘Kantonales Veterinäramt Basel Stadt') adhering to local and national regulations of laboratory animal welfare in Switzerland. The best compounds were tested in the murine P. berghei model essentially as described. The infection was initiated at day 0 with the P. berghei GFP ANKA malaria strain (donation from AP Waters and CJ Janse, Leiden University). From donor mice (female NMRI mice, 18–20 grams (about 3 weeks) from Charles River Germany) with ∼30% parasitaemia, heparinized blood was taken and diluted in physiological saline to 10^8 parasitized erythrocytes/ml. An aliquot (0.2 ml) of this suspension was injected intravenously into experimental and control groups of mice (female NMRI mice, 18–20 grams (about 3 weeks) from Charles River Germany). Usually, in untreated control mice parasitaemia rose regularly to ∼30% by day 3 post-infection. Control mice died between days 6 and 7 post infection. In the experiments described here, however, control animals (n=5) were killed on day 4 post infection for ethical reasons.
The steroid compounds were prepared at an appropriate concentration as a solution/suspension in Tween 80/alcohol (7:3, Tween 80 and absolute ethanol, respectively), followed by a 10x dilution in water. […] The route of administration was i.p., p.o., s.c. in a volume of 10 ml kg^−1.
The degree of infection (parasitaemia expressed in % of infected erythrocytes) was determined by FACS analysis on day 4 (96 h post infection). The difference of the mean infection rate of the control group (=100%) to the test group was calculated and expressed as a percent reduction. For example, activity determination with a mean of 2% parasitaemia in treated mice and a mean of 40% parasitaemia in the control animals is calculated as follows: (40−2%)/40% × 100=95% activity. The survival time in days was recorded up to 30 days after infection. A compound was considered curative if the animal survived to day 30 after infection with no detectable parasites (confirmed by light microscopy).

[2] = system: P. berghei transmission from mice to Anopheles gambiae mosquitoes; assay: in vivo transmission-blocking assay; design: species or system Plasmodium berghei; conditions: 100 mg kg−1 i.p. daily, three doses; 4 days post passage
Method: We further tested the activity of compound 1o on parasite transmission from mice to Anopheles gambiae mosquitoes. For this, P. berghei-infected mice received a daily injection of compound 1o for 3 days starting 24 h post passage and were exposed to mosquito bites 24 h after each injection. Tween 80 (Tw80) and methylene blue (MB) served as negative and positive controls, respectively. As with MB, compound 1o limited parasite multiplication in mice, albeit to a lesser extent (Fig. 3a). […]
Figure 3 Effect of compound 1o on P. berghei multiplication in mice and on parasite transmission to mosquitoes. […] Parasitemia was monitored daily and the mean± s.d. of three independent experiments are plotted. […] (b) Prevalence (percentage of infected mosquitoes) and (c) infection intensity (mean number of parasites per infected midgut) were determined 7 days post infectious blood feeding. […] Significance for differences between treatments was calculated using generalized linear models with treatment, time, and repeats as variables, ***P value <0.001 (a–c). n, number of mosquitoes. […] Survival of treated gametocytes was calculated for each concentration relative to parasites exposed to vehicle. […]
Parasitaemia was determined daily via FACS analysis (FACSCalibur, BD Bioscience). […]

[3] = 4x 100 mg/kg i.p., recorded up to 30 days
[4] = 4x 100 mg/kg p.o., recorded up to 30 days

Structure (SMILES): COc1ccc2c(c1)CCC1C2CC[C@@]2(C)C1CC[C@H]2NCc1cc2ccccc2cc1O (some centres unmarked) [1o]
- % activity (reduction of parasitaemia) ([1]; 1x 100 mg/kg p.o.): 98%
- % of control ([1]; 1x 100 mg/kg p.o.): 1.5%
- Mouse survival in days, Average ([1]; 1x 100 mg/kg p.o.): 13 days
- Mouse survival in days, individual mice M1-M3 ([1]; 1x 100 mg/kg p.o.): 14 days (2×) and 11 days
- Parasitized RBC over 100, Average ([1]; 1x 100 mg/kg p.o.): 0.47
- Parasitized RBC over 100, individual mice M1-M3 ([1]; 1x 100 mg/kg p.o.): 0.30 and 0.60 and 0.50
- Parasitized RBC after 30 d (microscope), individual mice ([1]; 4x 100 mg/kg i.p.): 0.0
- % activity (reduction of parasitaemia) ([1]; 4x 100 mg/kg i.p., day 4): 99.8%
- % of control ([1]; 4x 100 mg/kg i.p., day 4): 0.17%
- Parasitized RBC over 100, Average ([1]; 4x 100 mg/kg i.p., day 4): 0.10
- Parasitized RBC over 100, individual mice M1-M3 ([1]; 4x 100 mg/kg i.p., day 4): 0.10
- Mouse survival in days, Average [1, 3]: > 30 days
- Mouse survival in days, individual mice M1-M3 [1, 3]: 30 days
- % activity (reduction of parasitaemia) ([1]; 4x 100 mg/kg p.o.): 99.8%
- % of control ([1]; 4x 100 mg/kg p.o.): 0.22%
- Parasitized RBC after 30 d (microscope), individual mice ([1]; 4x 100 mg/kg p.o.): 0.0
- Parasitized RBC over 100, Average ([1]; 4x 100 mg/kg p.o.): 0.13
- Parasitized RBC over 100, individual mice M1-M3 ([1]; 4x 100 mg/kg p.o.): 0.00 and 0.30 and 0.10
- Mouse survival in days, Average [1, 4]: 27 days
- Mouse survival in days, individual mice M1-M3 [1, 4]: 30 days (2×) and 20 days
- cure of mice ([1]; 4 × 100 mg kg−1 i.p.): all mice treated were cured
- cure of mice ([1]; 4 × 100 mg kg−1 oral): two thirds of the animals were cured
- parasite transmission to mosquitoes [2]: fully block parasite transmission to mosquitoes
